Earlier results as cited in patent US20260015669A1, “COMPOSITIONS AND METHODS FOR DETECTING AND TREATING TUMORS AND/OR CANCERS ASSOCIATED WITH BRAF AND/OR MAP2K1 VARIANTS” (North Carolina State University, priority 2022, published 2026).

Columns and labels:
[1] = tested on: ΔNVTAP mutants; settings: human cancer cell lines; RAF dimer inhibitors target the αC-in/DFG-out conformation
[2] = target: ΔNVTAP mutants (Homo sapiens, UniProt P15056, DEL486-490); settings: human cancer cell lines; in contrast to V600E mutants; inhibitors target the αC-out/DFG-in conformation
Chain of ΔNVTAP mutants (Homo sapiens, UniProt P15056, DEL486-490) (P15056 with tags, fused parts or gaps DEL486-490): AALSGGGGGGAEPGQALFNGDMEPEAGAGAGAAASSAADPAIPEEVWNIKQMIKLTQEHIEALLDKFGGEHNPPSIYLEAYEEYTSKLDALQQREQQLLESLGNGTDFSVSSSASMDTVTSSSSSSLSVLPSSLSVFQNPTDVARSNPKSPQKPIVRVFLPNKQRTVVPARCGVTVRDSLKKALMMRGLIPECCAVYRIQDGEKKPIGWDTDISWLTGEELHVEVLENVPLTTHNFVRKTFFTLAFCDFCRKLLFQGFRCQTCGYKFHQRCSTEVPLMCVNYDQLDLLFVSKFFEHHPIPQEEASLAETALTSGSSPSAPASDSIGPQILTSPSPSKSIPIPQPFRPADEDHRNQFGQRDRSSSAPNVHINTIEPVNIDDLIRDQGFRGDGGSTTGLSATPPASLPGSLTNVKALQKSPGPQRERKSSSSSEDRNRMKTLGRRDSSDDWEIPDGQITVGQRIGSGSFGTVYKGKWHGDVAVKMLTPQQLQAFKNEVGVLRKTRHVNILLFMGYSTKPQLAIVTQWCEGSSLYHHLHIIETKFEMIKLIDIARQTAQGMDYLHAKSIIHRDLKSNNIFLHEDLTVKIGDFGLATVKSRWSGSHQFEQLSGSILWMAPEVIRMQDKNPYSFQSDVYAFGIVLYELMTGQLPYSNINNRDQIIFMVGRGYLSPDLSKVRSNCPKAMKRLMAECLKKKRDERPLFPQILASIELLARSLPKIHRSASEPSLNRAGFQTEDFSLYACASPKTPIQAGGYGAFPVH

Row | SMILES | response of mutants with exon 12 in-frame deletions to pan-RAF dimer inhibitors and allosteric MEK inhibitors [1] | response of ΔNVTAP mutants to BRAF monomer inhibitors [2]
1 | Cc1ccc(NC(=O)c2cccc(C(C)(C)C#N)c2)cc1Nc1ccc2ncn(C)c(=O)c2c1 [AZ628] | susceptible | –
2 | CNc1ncc2cc(-c3cc(NC(=O)NCCC(C)(C)C)c(F)cc3C)c(C)nc2n1 [LY3009120] | susceptible | –
3 | O=C(c1ccc(F)c(F)c1Nc1ccc(I)cc1F)N1CC(O)([C@@H]2CCCCN2)C1 [cobimetinib] | susceptible | –
4 | CC(C)(C)c1nc(-c2cccc(NS(=O)(=O)c3c(F)cccc3F)c2F)c(-c2ccnc(N)n2)s1 [dabrafenib] | – | resistant
